Assay results taken from patent US20240279202A1 (NURIX THERAPEUTICS, INC., priority 2021, published 2024).

Biological target: T1, ITK (Homo sapiens, UniProt Q08881)
T1 sequence (Q08881 1-620): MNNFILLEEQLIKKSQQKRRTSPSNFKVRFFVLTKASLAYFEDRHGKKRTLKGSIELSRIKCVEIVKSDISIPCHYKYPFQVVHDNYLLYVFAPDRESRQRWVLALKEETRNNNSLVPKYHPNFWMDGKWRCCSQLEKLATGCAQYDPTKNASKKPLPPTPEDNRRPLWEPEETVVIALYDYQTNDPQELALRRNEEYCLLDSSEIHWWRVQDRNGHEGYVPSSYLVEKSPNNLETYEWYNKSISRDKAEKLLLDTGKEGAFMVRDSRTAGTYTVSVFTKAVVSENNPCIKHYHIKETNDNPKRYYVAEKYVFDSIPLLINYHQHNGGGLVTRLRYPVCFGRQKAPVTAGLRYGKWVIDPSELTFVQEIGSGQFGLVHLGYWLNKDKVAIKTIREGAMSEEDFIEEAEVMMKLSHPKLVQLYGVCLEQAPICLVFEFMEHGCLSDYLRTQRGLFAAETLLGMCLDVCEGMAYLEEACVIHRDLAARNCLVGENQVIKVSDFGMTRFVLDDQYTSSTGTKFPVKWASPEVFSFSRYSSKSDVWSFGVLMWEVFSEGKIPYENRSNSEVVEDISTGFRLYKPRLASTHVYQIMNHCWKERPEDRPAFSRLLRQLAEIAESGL
Assay: ITK degradation MSD (Meso Scale Discovery) assay
Assay type: cell-based
Set-up: either human Jurkat (Clone E6-1 ATCC TIB-152) or Motl4 (ATCC CRL-1552), were plated; endogenous in cells; host or cells: Jurkat clone E6-1 (ATCC TIB-152) or Molt4 (ATCC CRL-1552)
Conditions: Jurkat or Molt4 cells, 4 or 6 hrs
Experimental: ITK Degradation MSD (Meso Scale Discovery) Assay Compound dilution series (7-point, 5 fold dilutions in DMSO, rows B-H with replicate in Column 1⁄2, 3⁄4, 5⁄6, 7,8, at 2000× the final required concentrations were prepared in 96 well plates (Falcon, cat. no. 353077). Row A, Column 1-8 were control DMSO. The 2000× solutions ranged from 2 mM to 128 nM (final assay concentration range 1 μM to […]). The 2000× solutions were added to cells in […], for a final DMSO concentration of 0.5% and final assay compound concentration of 1×. For the cells, either human Jurkat (Clone E6-1 ATCC TIB-152) or Motl4 (ATCC CRL-1552), were plated at 1×10^6 cells/mL, 100 μL/well ([…]) in complete RPMI (10% FBS, 1% L-glutamine). Cells were incubated for 4 or 6 hrs at 32° C./6% CO2. Following incubation, plates were centrifuged at 1200 rpm for 5 min. supernatant was removed and 50 μL of cell lysis buffer ((MSD Tris lysis buffer (R60TX), Complete Mini EDTA-free protease inhibitor (Sigma 11836170001), Protease Inhibitor Cocktail (Sigma, P2714), Phosphatase Inhibitor Cocktail 2 and 3 (Sigma, P5726 and P0044), and Benzonase (Sigma, E1014)) was added to each well. Plates were sealed and shook at 4° C. for 30 min. Plates were centrifuged and 45 μL was removed for plate assays. Assay plate preparation: Meso Scale Discovery (MSD) multi-array sm spot 96 well plates (Goat anti-Rabbit L^45-RA), were blocked with 3% BSA blocking buffer (3% Bovine Serum Albumin (Sigma A3059)+TBS 0.2% Tween-20) for 1 hr with gentle rocking at room temperature. Plates were then washed with 200 μL of 1× TBST (TBS 0.2% Tween-20) 3 times. After last wash, liquid was removed and 50 μL per well of capture antibody (abcam ITK Y402-ab32507) was added to plates at a 1:1000 dilution in blocking buffer (above). Plates were sealed and rocked at room temperature for 2 hrs. Plates were then washed 3 times with 200 μL of 1× TBST. After last wash, liquid was removed and 45 μL of cell lysate (from above) was added to each plate. Plates were sealed and rocked overnight at 4° C. Next day, cell lysates were removed, and assay plates were washed 3 times with 200 μL of 1× TBST. After last wash, liquid was removed and detection antibody (CST ITK (2F12) #2380) was added at 50 μL per well at a dilution of 1:1000 in blocking buffer. Plates were sealed and rocked at room temperature for 2 hrs. Plates were washed 3 times with 200 uL of 1× TBST. After last wash, liquid was removed, MSD Mouse anti-Rabbit sulfo tag (R32AC-1) was diluted to 1:1000 in blocking buffer. 50 μL was added to each well on the plate. Plates were sealed and incubated at room temperature for 1 hr. Plates were washed 3 times with 200 μL of 1× TBST. After last wash, liquid was removed and 150 μL of 1× MSD Read Buffer T ([…]) was then added to each well for ECL read out. For reading ECL signal, plate is read on a Meso Scale Discovery (MSD) MESO Sector S 600 plate reader. Percent ITK in then calculated as described below. Percent ITK remaining per sample was calculated as follows: [formula] Using Graphpad Prism, % ITK remaining values were plotted as a function of compound concentration. To determine DC50 and Dmax values, resulting curves were fit to the Prism curve-fitting equation “log(inhibitor) vs response-Variable slope (four parameters)” (reported best fit value IC50 used as DC50).

Row | SMILES | DC50 [nM] | Dmax [%]
1 | C[C@@H](C(=O)N(C)c1ccc2cc(-c3n[nH]c4c3CCC(C)(C)C4)[nH]c2c1)N1CCN(CC2CCN(c3ccc(C(=O)NC4CCC(=O)NC4=O)nc3)CC2)CC1 (stereo partly drawn) [Compound 7, 5-(4-((4-((S)-1-((2-(6,6-dimethyl-4,5,6,7-tetrahydro-1H-indazol-3-yl)-1H-indol-6-yl)(methyl)amino)-1-oxopropan-2-yl)piperazin-1-yl)methyl)piperidin-1-yl)-N-(2,6-dioxopiperidin-3-yl)picolinamide] | 10 | 83
2 | C[C@@H](C(=O)N(C)c1ccc2cc(-c3n[nH]c4c3CCC(C)(C)C4)[nH]c2c1)N1CCN(CC2CCN(c3ccc4c(c3)n(C)c(=O)n4C3CCC(=O)NC3=O)CC2)CC1 (stereo partly drawn) [Compound 6, (2S)—N-(2-(6,6-dimethyl-4,5,6,7-tetrahydro-1H-indazol-3-yl)-1H-indol-6-yl)-2-(4-((1-(1-(2,6-dioxopiperidin-3-yl)-3-methyl-2-oxo-2,3-dihydro-1H-benzo[d]imidazol-5-yl)piperidin-4-yl)methyl)piperazin-1-yl)-N-methylpropanamide] | 0.0041 | 81
3 | CN(C(=O)CCN1CCN(c2ccc3c(c2)C(=O)N(C2CCC(=O)NC2=O)C3=O)CC1)c1ccc2cc(-c3n[nH]c4c3CCC(C)(C)C4)[nH]c2c1 (centres unmarked) [Compound 2, N-(2-(6,6-dimethyl-4,5,6,7-tetrahydro-1H-indazol-3-yl)-1H-indol-6-yl)-3-(4-(2-(2,6-dioxopiperidin-3-yl)-1,3-dioxoisoindolin-5-yl)piperazin-1-yl)-N-methylpropanamide] | 1.1 | 84
4 | C[C@@H](C(=O)N(C)c1ccc2cc(-c3n[nH]c4c3CCC(C)(C)C4)[nH]c2c1)N1CCN(C(=O)C2CN(C3CCN(c4ccc5c(c4)C(=O)N(C4CCC(=O)NC4=O)C5=O)CC3)C2)CC1 (stereo partly drawn) [Compound 34, (2S)—N-(2-(6,6-dimethyl-4,5,6,7-tetrahydro-1H-indazol-3-yl)-1H-indol-6-yl)-2-(4-(1-(1-(2-(2,6-dioxopiperidin-3-yl)-1,3-dioxoisoindolin-5-yl)piperidin-4-yl)azetidine-3-carbonyl)piperazin-1-yl)-N-methylpropanamide] | 1 | 86
5 | CN(C(=O)CCC1CCN(c2ccc3c(c2)C(=O)N(C2CCC(=O)NC2=O)C3=O)C1)c1ccc2cc(-c3n[nH]c4c3CCC(C)(C)C4)[nH]c2c1 (centres unmarked) [Compound 1, N-(2-(6,6-dimethyl-4,5,6,7-tetrahydro-1H-indazol-3-yl)-1H-indol-6-yl)-3-(1-(2-(2,6-dioxopiperidin-3-yl)-1,3-dioxoisoindolin-5-yl)pyrrolidin-3-yl)-N-methylpropanamide] | 7 | 87
6 | C[C@@H](C(=O)N(C)c1ccc2cc(-c3n[nH]c4c3CCC(C)(C)C4)[nH]c2c1)N1CCN(C[C@H]2CCN(c3ccc4c(c3)C(=O)N(C3CCC(=O)NC3=O)C4=O)C2)CC1 (stereo partly drawn) [Compound 33, (2S)—N-(2-(6,6-dimethyl-4,5,6,7-tetrahydro-1H-indazol-3-yl)-1H-indol-6-yl)-2-(4-(((3R)-1-(2-(2,6-dioxopiperidin-3-yl)-1,3-dioxoisoindolin-5-yl)pyrrolidin-3-yl)methyl)piperazin-1-yl)-N-methylpropanamide] | 1.6 | 87
7 | CN(C(=O)C1CN(C2CCN(c3ccc4c(c3)C(=O)N(C3CCC(=O)NC3=O)C4=O)CC2)C1)c1ccc2cc(-c3n[nH]c4c3CCC(C)(C)C4)[nH]c2c1 (centres unmarked) [Compound 35, N-(2-(6,6-dimethyl-4,5,6,7-tetrahydro-1H-indazol-3-yl)-1H-indol-6-yl)-1-(1-(2-(2,6-dioxopiperidin-3-yl)-1,3-dioxoisoindolin-5-yl)piperidin-4-yl)-N-methylazetidine-3-carboxamide] | 8 | 83
